Measurements taken from patent publication US7524832B2, “Combretastatin A-4 phosphate prodrug mono-and di-organic amine salts, mono-and di-amino acid salts and mono-and di-amino acid ester salts” (priority 2000, dated 2009).
Counter-ions that a name gives are not always drawn.

Key:
[1] = hygroscopicity (moisture sorption/desorption); type: physicochemical; settings: 25° C., ambient and high humidity conditions
Experimental: The data was obtained using a VTI Model MB-300W Moisture balance with relative humidity levels from 10% to 90% in increments of 10%. The maximum equilibration time at each humidity was set at 4 hours.
As used herein, the term “nonhygroscopic”, in reference to a compound, preferably denotes no measurable weight gain per weight of compound as measured above.
This was an unexpected result, because other salt forms of CA4P free acid are hygroscopic under similar conditions. Variable relative humidity-X-ray diffraction (“RH-XRD”) experiments have shown that the powder pattern remains unchanged on exposure to different humidities at 25° C.

[2] = solid-state chemical stability; type: physicochemical; settings: ambient and accelerated conditions of temperature and humidity
physchem = settings: 25 °C, thermodynamic from solid
[3] = tested on: murine L1210 lymphocytic leukemia cell line; settings: NCI murine L1210; cited from earlier work
[4] = tested on: murine P338 lymphocytic leukemia cell line; settings: NCI murine P338; cited from earlier work
microtubulin assembly = settings: cited from earlier work
[5] = cited from earlier work

SMILES	hygroscopicity [1]	chemical stability in the solid-state [2]	solubility (physchem; pH 4.8, water)	solubility (physchem; pH 8.2, aqueous buffer)	activity against L1210 lymphocytic leukemia cell line [3]	activity against P338 lymphocytic leukemia cell line [4]	inhibition of microtubulin assembly (microtubulin assembly)	solubility in water [5]
COc1ccc(/C=C\c2cc(OC)c(OC)c(OC)c2)cc1OP(=O)(O)O [CA4P mono TRIS salt, CA4P mono-tromethamine salt]	practically nonhygroscopic	good chemical stability	3.37 mg/mL	191 mg/mL				
COc1ccc(/C=C\c2cc(OC)c(OC)c(OC)c2)cc1O [combretastatin A-4]					significantly active	significantly active	potent inhibitor	essentially insoluble in water
